Test system: 3′-UTR of human PCSK7 mRNAs
Assay: Dual-luciferase reporter assay, wild-type PCSK7 3′-UTR, HEK293T cells
Format: cell-based
Conditions: wild-type PCSK7 3′-UTR psiCHECK-2, HEK293T
From the text: The interactions between the miRNAs and their probable targets on PCSK7 were explored by cloning the potential target regions in psiCHECK-2™ (Promega, USA), a luciferase reporter vector. In psiCHECK-2™, hRluc, the Renilla luciferase gene, is located upstream of the target regions of interest cloned into the psiCHECK-2™ vector downstream of the Renilla gene. The region corresponding to the 3′-UTR of PCSK7 (926-nt sequences in length) that constituted the predicted miRNA response elements was PCR-amplified and cloned downstream of the Renilla luciferase gene in the psiCHECK-2™ vector (Promega, USA). […]
The HEK293T cells were co-transfected through the application of the wild-type psiCHECK-2, the wild-type PCSK7 3′-UTR, the mutant PCSK7 3′-UTR, and the miR-overexpressing vectors so that the direct interactions of the nominated miRNAs with PCSK7 3′-UTR could be investigated. […] Transfection efficiency was monitored by fluorescent microscopy (Nikon TE2000S, Japan) 36 hours following the procedure.
The PsiCHECK-2 reporter construct plasmid contained the Renilla luciferase gene upstream of PCSK7 3′-UTR and an independent firefly luciferase gene as an internal control for normalization. […] Then, LARII Reagent was added, and after 20 minutes, the firefly luciferase activity was measured as a control. Afterward, Renilla activity was determined using Stop & Glo Reagent. […]

Substance: miR-125a-5p: miRNA targeting PCSK7 3′-UTR and exons 14 and 15, overexpressed from pEGFP-C1 precursor vector (UCCCUGAGACCCUUUAACCUGUGA; miRNA expressed from a pEGFP-C1 precursor vector, further chemistry not given here)
- reduction of relative luciferase activity: ~50%

Source: patent US20250129370A1, “METHOD FOR REDUCING HEPATIC TRIGLYCERIDES” (ADAERATA, LIMITED PARTNERSHIP, priority 2022, published 2025)
